Laboratory results from ChEMBL document CHEMBL5465560, “Selectivity Literature for EUbOPEN Chemogenomic Library” (2024).
One block for each compound: values may come before it.

Assays:
[1] = molecular target: Casein kinase I isoform gamma-2 (Homo sapiens) (UniProt P78368); test: Selectivity interaction (KinomeScan (DiscoverX)) EUB0000607a CSNK1G2; conditions: at 10 µM
[2] = molecular target: T1, Aurora kinase C (Homo sapiens) (UniProt Q9UQB9); test: Selectivity interaction (SelectScreen profiling (Invitrogen)) EUB0000607a AURKC; conditions: at 2 µM
T1 sequence (whole entry): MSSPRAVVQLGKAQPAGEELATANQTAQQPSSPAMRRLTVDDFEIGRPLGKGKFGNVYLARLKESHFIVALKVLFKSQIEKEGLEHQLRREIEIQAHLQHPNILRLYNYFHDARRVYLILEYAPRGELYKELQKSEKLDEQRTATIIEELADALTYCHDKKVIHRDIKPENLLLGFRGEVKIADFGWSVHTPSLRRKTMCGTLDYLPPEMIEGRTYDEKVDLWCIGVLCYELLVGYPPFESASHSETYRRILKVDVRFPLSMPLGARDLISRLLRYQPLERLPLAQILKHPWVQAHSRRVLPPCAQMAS

[3] = molecular target: Mitogen-activated protein kinase kinase kinase kinase 4 (Homo sapiens, UniProt O95819); test: Selectivity interaction (SelectScreen profiling (Invitrogen)) EUB0000607a MAP4K4; conditions: at 2 µM
Chain of Mitogen-activated protein kinase kinase kinase kinase 4 (O95819 2-1239 limits assumed): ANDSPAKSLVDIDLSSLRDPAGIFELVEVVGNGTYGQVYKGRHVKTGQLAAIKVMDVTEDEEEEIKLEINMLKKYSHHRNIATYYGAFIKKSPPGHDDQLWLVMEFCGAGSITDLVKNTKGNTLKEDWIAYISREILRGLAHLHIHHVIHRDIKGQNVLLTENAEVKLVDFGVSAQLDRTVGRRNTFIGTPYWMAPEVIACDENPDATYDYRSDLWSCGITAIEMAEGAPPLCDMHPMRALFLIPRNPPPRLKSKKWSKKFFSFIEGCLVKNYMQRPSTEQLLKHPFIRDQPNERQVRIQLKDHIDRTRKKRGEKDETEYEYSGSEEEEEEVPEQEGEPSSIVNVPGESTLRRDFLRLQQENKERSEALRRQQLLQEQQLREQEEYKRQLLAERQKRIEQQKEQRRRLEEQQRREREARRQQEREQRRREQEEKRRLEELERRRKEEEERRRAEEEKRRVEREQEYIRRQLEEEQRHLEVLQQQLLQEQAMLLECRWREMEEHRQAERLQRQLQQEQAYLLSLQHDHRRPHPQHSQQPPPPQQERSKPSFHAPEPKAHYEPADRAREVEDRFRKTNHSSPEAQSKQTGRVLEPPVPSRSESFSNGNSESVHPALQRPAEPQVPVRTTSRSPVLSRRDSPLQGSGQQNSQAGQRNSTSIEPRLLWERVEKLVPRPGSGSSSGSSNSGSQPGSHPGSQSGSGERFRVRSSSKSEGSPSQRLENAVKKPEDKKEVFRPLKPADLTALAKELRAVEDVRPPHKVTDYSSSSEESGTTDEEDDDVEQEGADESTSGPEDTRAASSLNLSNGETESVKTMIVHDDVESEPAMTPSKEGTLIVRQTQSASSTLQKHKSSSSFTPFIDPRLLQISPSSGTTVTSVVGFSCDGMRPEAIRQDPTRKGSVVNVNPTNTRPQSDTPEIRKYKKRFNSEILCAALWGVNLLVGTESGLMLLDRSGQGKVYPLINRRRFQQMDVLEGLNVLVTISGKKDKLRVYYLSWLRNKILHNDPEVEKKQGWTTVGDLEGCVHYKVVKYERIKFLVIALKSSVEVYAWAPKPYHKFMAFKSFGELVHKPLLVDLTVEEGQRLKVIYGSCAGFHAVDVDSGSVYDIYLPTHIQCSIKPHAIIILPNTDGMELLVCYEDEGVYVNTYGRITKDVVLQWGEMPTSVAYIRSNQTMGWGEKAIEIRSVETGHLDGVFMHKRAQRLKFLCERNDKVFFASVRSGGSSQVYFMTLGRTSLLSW

[4] = molecular target: Serine/threonine-protein kinase 38-like (Homo sapiens) (UniProt Q9Y2H1); test: Selectivity interaction (KinomeScan (DiscoverX)) EUB0001619a STK38L; conditions: at 1 µM
Chain of Serine/threonine-protein kinase 38-like (Homo sapiens) (Q9Y2H1 2-464 limits assumed): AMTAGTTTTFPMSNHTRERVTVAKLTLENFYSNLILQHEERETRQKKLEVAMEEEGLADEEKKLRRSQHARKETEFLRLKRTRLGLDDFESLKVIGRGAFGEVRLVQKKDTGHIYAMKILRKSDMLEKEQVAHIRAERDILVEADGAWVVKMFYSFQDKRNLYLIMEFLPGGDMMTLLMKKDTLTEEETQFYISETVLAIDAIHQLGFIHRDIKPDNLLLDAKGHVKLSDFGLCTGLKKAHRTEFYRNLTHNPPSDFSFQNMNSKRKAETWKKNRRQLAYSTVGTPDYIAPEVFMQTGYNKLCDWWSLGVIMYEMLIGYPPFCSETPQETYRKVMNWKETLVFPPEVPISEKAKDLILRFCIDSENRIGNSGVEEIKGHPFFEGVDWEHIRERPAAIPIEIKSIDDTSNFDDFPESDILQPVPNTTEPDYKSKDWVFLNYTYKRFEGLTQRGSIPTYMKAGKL

[5] = molecular target: Death-associated protein kinase 3 (Homo sapiens) (UniProt O43293); test: Selectivity interaction (Kinase panel (DSF assay)) EUB0001558a DAPK3
Chain of Death-associated protein kinase 3 (Homo sapiens) (O43293 whole entry, looked up): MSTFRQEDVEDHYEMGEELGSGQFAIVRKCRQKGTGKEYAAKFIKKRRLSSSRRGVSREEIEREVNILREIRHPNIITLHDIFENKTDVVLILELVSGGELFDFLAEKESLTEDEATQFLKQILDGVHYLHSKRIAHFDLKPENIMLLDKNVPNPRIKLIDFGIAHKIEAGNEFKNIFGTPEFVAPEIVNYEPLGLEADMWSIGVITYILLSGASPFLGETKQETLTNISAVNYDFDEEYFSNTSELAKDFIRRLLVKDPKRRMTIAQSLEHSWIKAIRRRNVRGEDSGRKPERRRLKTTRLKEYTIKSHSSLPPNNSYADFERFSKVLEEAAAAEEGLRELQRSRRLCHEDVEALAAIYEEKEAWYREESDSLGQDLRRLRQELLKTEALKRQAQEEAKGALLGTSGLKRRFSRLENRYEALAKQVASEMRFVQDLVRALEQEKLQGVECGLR

[6] = molecular target: T2, Phosphatidylinositol 5-phosphate 4-kinase type-2 gamma (Homo sapiens) (UniProt Q8TBX8); test: Selectivity interaction (KinomeScan (DiscoverX)) EUB0000045b PIP4K2C; conditions: at 1 µM
T2 sequence (whole entry): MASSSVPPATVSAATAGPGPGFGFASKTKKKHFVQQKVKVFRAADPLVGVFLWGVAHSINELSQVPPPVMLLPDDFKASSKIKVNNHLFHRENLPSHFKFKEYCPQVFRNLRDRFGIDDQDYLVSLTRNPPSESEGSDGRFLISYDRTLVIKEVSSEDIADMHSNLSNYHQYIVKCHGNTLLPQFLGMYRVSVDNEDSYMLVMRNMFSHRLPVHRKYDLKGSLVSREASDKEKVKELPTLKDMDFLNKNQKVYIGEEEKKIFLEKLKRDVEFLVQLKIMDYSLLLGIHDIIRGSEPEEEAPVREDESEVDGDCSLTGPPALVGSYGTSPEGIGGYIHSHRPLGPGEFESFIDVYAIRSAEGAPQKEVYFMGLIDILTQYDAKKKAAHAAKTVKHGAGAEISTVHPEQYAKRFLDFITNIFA

[7] = molecular target: Mitogen-activated protein kinase 7 (Homo sapiens) (UniProt Q13164); test: Selectivity interaction (KinomeScan (DiscoverX)) EUB0000595a MAPK7; conditions: at 10 µM
Chain of Mitogen-activated protein kinase 7 (Homo sapiens) (Q13164 2-816 limits assumed): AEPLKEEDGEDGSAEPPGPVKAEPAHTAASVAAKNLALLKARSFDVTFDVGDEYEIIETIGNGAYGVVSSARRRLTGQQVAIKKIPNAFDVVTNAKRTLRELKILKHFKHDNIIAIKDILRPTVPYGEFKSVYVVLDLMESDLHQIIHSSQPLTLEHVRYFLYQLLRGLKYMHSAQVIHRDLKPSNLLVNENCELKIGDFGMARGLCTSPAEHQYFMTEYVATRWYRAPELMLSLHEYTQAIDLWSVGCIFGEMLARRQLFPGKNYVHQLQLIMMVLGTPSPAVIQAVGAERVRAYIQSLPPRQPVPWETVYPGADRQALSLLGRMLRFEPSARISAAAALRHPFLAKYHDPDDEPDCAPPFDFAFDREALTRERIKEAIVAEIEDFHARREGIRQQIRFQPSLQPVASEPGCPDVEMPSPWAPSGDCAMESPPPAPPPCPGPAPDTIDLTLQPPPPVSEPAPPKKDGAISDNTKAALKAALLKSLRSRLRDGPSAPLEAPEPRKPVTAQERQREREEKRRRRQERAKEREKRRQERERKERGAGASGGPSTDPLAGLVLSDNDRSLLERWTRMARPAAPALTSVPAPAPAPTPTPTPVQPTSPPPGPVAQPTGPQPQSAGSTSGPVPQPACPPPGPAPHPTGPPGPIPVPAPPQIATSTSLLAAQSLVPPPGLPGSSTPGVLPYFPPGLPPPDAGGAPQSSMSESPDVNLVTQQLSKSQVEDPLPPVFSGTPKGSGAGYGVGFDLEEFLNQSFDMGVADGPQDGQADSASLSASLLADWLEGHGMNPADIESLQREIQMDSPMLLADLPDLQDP

[8] = molecular target: MAP kinase-interacting serine/threonine-protein kinase 2 (Homo sapiens, UniProt Q9HBH9); test: Selectivity interaction (Upstate Kinase Profiler service (Millipore)) EUB0000056c MKNK2; conditions: at 1 µM
Chain of MAP kinase-interacting serine/threonine-protein kinase 2 (Q9HBH9 whole entry, looked up): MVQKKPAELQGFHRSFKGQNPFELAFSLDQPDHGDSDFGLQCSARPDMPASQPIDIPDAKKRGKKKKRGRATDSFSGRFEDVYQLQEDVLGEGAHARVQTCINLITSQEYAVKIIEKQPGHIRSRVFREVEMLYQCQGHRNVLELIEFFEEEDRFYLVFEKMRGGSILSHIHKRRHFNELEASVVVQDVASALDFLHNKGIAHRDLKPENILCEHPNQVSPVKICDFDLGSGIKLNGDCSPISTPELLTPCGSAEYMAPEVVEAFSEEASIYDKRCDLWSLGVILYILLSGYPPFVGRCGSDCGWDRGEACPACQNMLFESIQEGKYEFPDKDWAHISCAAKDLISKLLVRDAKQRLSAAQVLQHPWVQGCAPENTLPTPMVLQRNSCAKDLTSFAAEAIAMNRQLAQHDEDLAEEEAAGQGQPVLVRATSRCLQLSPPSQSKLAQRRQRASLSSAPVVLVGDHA

[9] = molecular target: Homeodomain-interacting protein kinase 2 (Homo sapiens, UniProt Q9H2X6); test: Selectivity interaction (Upstate Kinase Profiler service (Millipore)) EUB0000056c HIPK2; conditions: at 1 µM
[10] = molecular target: Serine/threonine-protein kinase MARK2 (Homo sapiens) (UniProt Q7KZI7); test: Selectivity interaction (Kinase panel (KiNativ target engagement assay in Jurkat cells)) EUB0001635a MARK2; format: cell-based; conditions: Selectivity number of off-targets 0.0, Selectivity number of targets 233.0, Source Knowledge https://www.sciencedirect.com/science/article/pii/S2451945619300674?via%3Dihub, at 1 µM
Chain of Serine/threonine-protein kinase MARK2 (Homo sapiens) (Q7KZI7 whole entry): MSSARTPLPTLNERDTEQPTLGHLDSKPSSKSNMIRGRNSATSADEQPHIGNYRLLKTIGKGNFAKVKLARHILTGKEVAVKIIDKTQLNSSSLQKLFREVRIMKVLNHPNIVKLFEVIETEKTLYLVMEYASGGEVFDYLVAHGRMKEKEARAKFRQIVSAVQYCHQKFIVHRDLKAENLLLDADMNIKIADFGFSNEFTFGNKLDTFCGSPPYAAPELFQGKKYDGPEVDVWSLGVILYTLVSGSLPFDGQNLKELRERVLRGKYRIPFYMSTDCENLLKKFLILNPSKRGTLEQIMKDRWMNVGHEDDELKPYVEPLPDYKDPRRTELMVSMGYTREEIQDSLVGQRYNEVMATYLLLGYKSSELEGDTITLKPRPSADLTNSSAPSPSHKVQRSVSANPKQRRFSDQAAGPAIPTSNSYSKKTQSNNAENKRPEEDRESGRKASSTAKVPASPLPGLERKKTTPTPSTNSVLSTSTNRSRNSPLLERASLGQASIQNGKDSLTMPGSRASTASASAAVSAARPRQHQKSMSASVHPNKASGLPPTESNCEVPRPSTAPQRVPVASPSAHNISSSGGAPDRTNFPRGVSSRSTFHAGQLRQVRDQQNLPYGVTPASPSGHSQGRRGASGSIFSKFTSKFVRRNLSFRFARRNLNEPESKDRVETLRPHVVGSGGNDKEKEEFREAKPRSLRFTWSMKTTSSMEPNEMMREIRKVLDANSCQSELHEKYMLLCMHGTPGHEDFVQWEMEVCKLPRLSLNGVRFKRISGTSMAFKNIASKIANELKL

[11] = molecular target: T3, 3-phosphoinositide-dependent protein kinase 1 (Homo sapiens) (UniProt O15530); conditions: at 10 µM
T3 sequence (whole entry): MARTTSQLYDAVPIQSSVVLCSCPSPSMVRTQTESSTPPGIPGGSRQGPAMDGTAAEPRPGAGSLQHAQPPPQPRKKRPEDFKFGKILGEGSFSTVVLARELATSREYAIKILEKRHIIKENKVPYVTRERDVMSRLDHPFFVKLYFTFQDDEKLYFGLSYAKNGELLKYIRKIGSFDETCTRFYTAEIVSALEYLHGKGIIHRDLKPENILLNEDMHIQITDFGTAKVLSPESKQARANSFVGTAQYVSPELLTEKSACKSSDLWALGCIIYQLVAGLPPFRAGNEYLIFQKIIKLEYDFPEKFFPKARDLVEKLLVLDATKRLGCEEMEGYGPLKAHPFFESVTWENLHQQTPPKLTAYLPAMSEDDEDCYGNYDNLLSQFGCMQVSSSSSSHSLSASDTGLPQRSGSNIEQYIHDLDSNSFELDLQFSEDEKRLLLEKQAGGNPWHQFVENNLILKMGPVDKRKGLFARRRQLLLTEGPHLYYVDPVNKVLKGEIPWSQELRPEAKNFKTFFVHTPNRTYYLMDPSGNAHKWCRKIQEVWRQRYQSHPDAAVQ

[12] = molecular target: Protein kinase C beta type (Homo sapiens, UniProt P05771); test: Selectivity interaction (Kinase panel (Invitrogen)) EUB0000639a PRKCB; conditions: at 200 nM
[13] = molecular target: Phosphatidylinositol 3-kinase catalytic subunit type 3 (Homo sapiens, UniProt Q8NEB9); test: Selectivity interaction (ActivX KiNativ screen (kinase selectivity in THP-1 cell lysates)) EUB0000639a PIK3C3; format: subcellular; conditions: lysate, at 0.2 µM
[14] = molecular target: T4, Serine/threonine-protein kinase Nek3 (Homo sapiens) (UniProt P51956); test: Selectivity interaction (KinomeScan (DiscoverX)) EUB0000229b NEK3; conditions: at 10 µM
T4 sequence (whole entry): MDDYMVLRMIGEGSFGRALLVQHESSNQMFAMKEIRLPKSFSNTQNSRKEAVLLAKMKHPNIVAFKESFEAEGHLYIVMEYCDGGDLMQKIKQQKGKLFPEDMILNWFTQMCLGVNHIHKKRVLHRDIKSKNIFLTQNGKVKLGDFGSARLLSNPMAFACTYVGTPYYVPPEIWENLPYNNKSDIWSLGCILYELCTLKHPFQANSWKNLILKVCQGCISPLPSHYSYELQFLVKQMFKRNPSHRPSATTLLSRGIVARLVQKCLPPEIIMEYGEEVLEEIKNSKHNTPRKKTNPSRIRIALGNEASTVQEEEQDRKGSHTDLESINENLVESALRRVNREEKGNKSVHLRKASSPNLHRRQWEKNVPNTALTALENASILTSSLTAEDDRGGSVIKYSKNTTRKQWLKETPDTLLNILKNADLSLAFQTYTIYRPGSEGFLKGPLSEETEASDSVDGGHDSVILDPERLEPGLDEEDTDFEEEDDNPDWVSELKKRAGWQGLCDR

[15] = molecular target: Casein kinase I isoform gamma-2 (Homo sapiens) (UniProt P78368); test: Selectivity interaction (KinomeScan (DiscoverX)) EUB0000092b CSNK1G2; conditions: at 10 µM
[16] = molecular target: Leukocyte tyrosine kinase receptor (Homo sapiens, UniProt P29376); test: Selectivity interaction (Kinase panel (Z-LYTE Assay)) EUB0001632a LTK; conditions: at 10 µM

Chain of Casein kinase I isoform gamma-2 (Homo sapiens) (P78368 whole entry, looked up, canonical isoform): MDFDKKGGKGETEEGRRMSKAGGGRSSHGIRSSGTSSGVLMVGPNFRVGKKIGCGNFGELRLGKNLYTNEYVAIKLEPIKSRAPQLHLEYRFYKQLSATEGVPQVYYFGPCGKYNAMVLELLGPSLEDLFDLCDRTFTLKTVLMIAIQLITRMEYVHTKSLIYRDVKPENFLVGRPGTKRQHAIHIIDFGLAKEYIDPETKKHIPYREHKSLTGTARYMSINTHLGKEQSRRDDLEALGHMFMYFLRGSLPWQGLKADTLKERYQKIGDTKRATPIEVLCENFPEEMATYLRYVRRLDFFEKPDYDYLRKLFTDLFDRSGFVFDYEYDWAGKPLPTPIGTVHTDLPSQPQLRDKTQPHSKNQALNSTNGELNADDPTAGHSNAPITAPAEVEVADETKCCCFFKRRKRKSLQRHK

Structure (SMILES): CNC(=O)Nc1ccc(-c2nc(N3CC4CCC(C3)O4)c3cnn(C4CCC5(CC4)OCCO5)c3n2)cc1
% of control [1]: 95%
% of inhibition [2]: 4%
% of inhibition [3]: 10%

Structure (SMILES): N#Cc1cccc(-c2c[nH]c3ncnc(N4CCOCC4)c23)c1
% of control [4]: 100%

Structure (SMILES): CC(C)(O)[C@H](F)CN1Cc2cc(NC(=O)c3cnn4cccnc34)c(N3CCOCC3)cc2C1=O
dTM [5]: 1.8 K

Structure (SMILES): C=CC(=O)Nc1cc(-n2c(=O)ccc3cnc4ccc(-c5ccc(NS(C)(=O)=O)cc5)cc4c32)ccc1C
% of control [6]: 5.6%

Structure (SMILES): COCC(=O)NC/C=C/c1ccc2ncnc(Nc3ccc(Oc4ccc(C)nc4)c(C)c3)c2c1 [CP-724714]
% of control [7]: 100%

% of inhibition [8]: 85%
% of inhibition [9]: 2%
Structure (SMILES): Cc1ccc(-c2ccc3c(ccc4sc5c(c43)NC[C@@H](C)NC5=O)n2)cn1

Structure (SMILES): C=CC(=O)Nc1ccc(C(=O)Nc2[nH]nc3c2CN(C(=O)N[C@H](CN(C)C)c2ccccc2)C3(C)C)cc1
% of engagement [10]: 6.7%

Structure (SMILES): Cc1cc([C@@H](C)Nc2ccccc2C(=O)O)c2nc(N3CCOCC3)cc(=O)n2c1 [AZD-6482]
% of control [11]: 100%

% of inhibition [12]: 6.06%
% of inhibition [13]: -20.4%
Structure (SMILES): CC[C@@H]1[C@H](F)C(=O)N[C@@H]1COc1nccc2cc(C(N)=O)c(OC)cc12 [ZIMLOVISERTIB]

Structure (SMILES): COc1cc(N(C)c2ccnc3ccc(C(F)(F)F)cc23)cc(OC)c1OC
% binding [14]: 80%

Structure (SMILES): CCC(=O)N1CCN(c2ccc(-n3c(=O)ccc4cnc5ccc(-c6cnc7ccccc7c6)cc5c43)cc2C(F)(F)F)CC1
% of control [15]: 100%

% of control [16]: 3.23%
Structure (SMILES): Cn1cc(-n2cnc3c(NCc4nc5cc(Cl)c(Cl)cc5[nH]4)nc(N4CCOCC4)nc32)cn1
